Test results taken from US10336735B2, “Small molecule inhibitors of fibrosis” (THE CALIFORNIA INSTITUTE FOR BIOMEDICAL RESEARCH, priority 2014, dated 2019).

Tested on: primary human lung fibroblasts and primary rodent HSCs
Experiment: High content imaging assay (α-SMA staining, cell morphology) of fibroblast to myofibroblast transdifferentiation, confirmed by Western blot and RT-PCR
Conditions: Homo sapiens, Fibroblast; imaging and western based activity
Outline: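 Primary human lung fibroblasts and primary rodent HSCs were serum-starved and then TGF-β-treated to drive transdifferentiation in 384-well format, with SB-431542 as positive control. Readouts were α-SMA immunofluorescence and cell morphology by high-content imaging, confirmed by Western blot and RT-PCR in 4-day, 4-point dose-response assays; EC50 values are graded.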

## CCC(C)n1ncn(-c2ccc(N3CCN(c4ccc(OC(C)[C@@H]5CO[C@@](Cn6nccn6)(c6ccccc6)O5)cc4)CC3)cc2)c1=O (stereo partly shown) [Compound 140]
  EC50: 5000 to 30000 nM

## CCC(C)n1ncn(-c2ccc(N3CCN(c4ccc(OCCO[C@@H](Cn5nccn5)c5ccccc5)cc4)CC3)cc2)c1=O (stereo partly shown) [Compound 141]
  EC50: > 30000 nM

## CCC(C)n1ncn(-c2ccc(N3CCN(c4ccc(OCCCO[C@@H](Cn5nccn5)c5ccccc5)cc4)CC3)cc2)c1=O (stereo partly shown) [Compound 142]
  EC50: > 30000 nM

## CCC(C)n1ncn(-c2ccc(N3CCN(c4ccc(OC[C@@H]5CO[C@@](Cn6nccn6)(c6ccccc6)C5)cc4)CC3)cc2)c1=O (stereo partly shown) [Compound 143]
  EC50: 5000 to 30000 nM

## CCC(CC)n1ncn(-c2ccc(N3CCN(c4ccc(OC[C@H]5CO[C@](Cn6nccn6)(c6ccccc6)C5)cc4C#N)CC3)cc2)c1=O [Compound 144]
  EC50: > 30000 nM

## O=c1n(-c2ccc(N3CCN(c4ccc(OC[C@H]5CO[C@](Cn6nccn6)(c6ccccc6)C5)cc4F)CC3)cc2)cnn1CC1CCCC1 [Compound 145]
  EC50: 5000 to 30000 nM

## N#Cc1cc(OC[C@H]2CO[C@](Cn3nccn3)(c3ccccc3)C2)ccc1N1CCN(c2ccc(-n3cnn(CC4CCCC4)c3=O)cc2)CC1 [Compound 146]
  EC50: > 30000 nM

## CCC(C)n1ncn(-c2ccc(N3CCN(c4ccc(OC[C@H]5CO[C@](Cn6nccn6)(c6ccccc6)C5)cc4)CC3)cc2)c1=O (stereo partly shown) [Compound 147]
  EC50: > 30000 nM

## CCC(C)n1ncn(-c2ccc(N3CCN(c4ccc(OC[C@H]5CO[C@](Cn6nccn6)(c6ccccc6)C5)cc4F)CC3)cc2)c1=O (stereo partly shown) [Compound 148]
  EC50: > 30000 nM

## CCC(C)n1ncn(-c2ccc(N3CCN(c4ccc(OC[C@H]5CO[C@](Cn6nccn6)(c6ccccc6)C5)cc4C#N)CC3)cc2)c1=O (stereo partly shown) [Compound 149]
  EC50: > 30000 nM

## CCC(C)n1cnn(-c2ccc(N3CCN(c4ccc(OC[C@@H]5CO[C@@](Cc6ccccc6)(c6ccccc6)O5)cc4)CC3)cc2)c1=O (stereo partly shown) [Compound 150]
  EC50: > 30000 nM

## CC1(CCn2ncn(-c3ccc(N4CCN(c5ccc(OC[C@@H]6CO[C@@](Cn7cncn7)(c7ccc(Br)cc7)O6)cc5)CC4)cc3)c2=O)N=N1 [Compound 151]
  EC50: 500 to 5000 nM

## CCC(CC)n1ncn(-c2ccc(N3CCN(c4ccc(OC[C@@H]5CO[C@@](Cn6nccn6)(c6ccc(Cl)cc6Cl)O5)cc4C#N)CC3)cc2)c1=O [Compound 152]
  EC50: 5000 to 30000 nM

## O=c1n(-c2ccc(N3CCN(c4ccc(OC[C@@H]5CO[C@@](Cn6nccn6)(c6ccc(Cl)cc6Cl)O5)cc4F)CC3)cc2)cnn1CC1CCCC1 [Compound 154]
  EC50: < 500 nM

## CCC(CC)n1ncn(-c2ccc(N3CCN(c4ccc(OC[C@@H]5CO[C@@](Cn6nccn6)(c6ccccc6)O5)cc4C#N)CC3)cc2)c1=O [Compound 155]
  EC50: < 500 nM

## N#Cc1cc(OC[C@@H]2CO[C@@](Cn3nccn3)(c3ccccc3)O2)ccc1N1CCN(c2ccc(-n3cnn(CC4CCCC4)c3=O)cc2)CC1 [Compound 156]
  EC50: 500 to 5000 nM

## O=c1n(-c2ccc(N3CCN(c4ccc(OC[C@@H]5CO[C@@](Cn6nccn6)(c6ccccc6)O5)cc4F)CC3)cc2)cnn1CC1CCCC1 [Compound 157]
  EC50: < 500 nM

## CCC(CC)n1ncn(-c2ccc(N3CCN(c4ccc(OC[C@H]5CO[C@](Cn6nccn6)(c6ccccc6)O5)cc4)CC3)cc2)c1=O [Compound 160]
  EC50: < 500 nM

## CCC(CC)n1ncn(-c2ccc(N3CCN(c4ccc(OC[C@@H]5CO[C@@](Cn6nccn6)(c6ccccc6)O5)cc4)CC3)cc2)c1=O [Compound 161]
  EC50: < 500 nM

## O=c1n(-c2ccc(N3CCN(c4ccc(OC[C@H]5CO[C@](Cn6nccn6)(c6ccc(Cl)cc6Cl)O5)cc4F)CC3)cc2)cnn1CC1CCCC1 [Compound 163]
  EC50: < 500 nM

## CCC(CC)n1ncn(-c2ccc(N3CCN(c4ccc(OC[C@@H]5CO[C@@](Cn6nccn6)(c6ccc(Cl)cc6Cl)O5)cc4F)CC3)cc2)c1=O [Compound 164]
  EC50: < 500 nM

## CCC(CC)n1ncn(-c2ccc(N3CCN(c4ccc(OC[C@H]5CO[C@](Cn6nccn6)(c6ccc(Cl)cc6Cl)O5)cc4F)CC3)cc2)c1=O [Compound 165]
  EC50: < 500 nM

## CCC(CC)n1ncn(-c2ccc(N3CCN(c4ccc(OC[C@@H]5CO[C@@](Cn6cccn6)(c6ccccc6)O5)cc4)CC3)cc2)c1=O [Compound 166]
  EC50: < 500 nM

## CCC(CC)n1ncn(-c2ccc(N3CCN(c4ccc(OC[C@H]5CO[C@](Cn6cccn6)(c6ccccc6)O5)cc4)CC3)cc2)c1=O [Compound 167]
  EC50: < 500 nM

## CC[C@H](C)n1ncn(-c2ccc(N3CCN(c4ccc(OC[C@@H]5CO[C@@](Cn6cccn6)(c6ccccc6)O5)cc4)CC3)cc2)c1=O [Compound 168]
  EC50: < 500 nM

## CC[C@@H](C)n1ncn(-c2ccc(N3CCN(c4ccc(OC[C@@H]5CO[C@@](Cn6cccn6)(c6ccccc6)O5)cc4)CC3)cc2)c1=O [Compound 169]
  EC50: < 500 nM

## CC[C@H](C)n1ncn(-c2ccc(N3CCN(c4ccc(OC[C@H]5CO[C@](Cn6cccn6)(c6ccccc6)O5)cc4)CC3)cc2)c1=O [Compound 170]
  EC50: < 500 nM

## CC[C@@H](C)n1ncn(-c2ccc(N3CCN(c4ccc(OC[C@H]5CO[C@](Cn6cccn6)(c6ccccc6)O5)cc4)CC3)cc2)c1=O [Compound 171]
  EC50: < 500 nM

## CC[C@H](C)n1ncn(-c2ccc(N3CCN(c4ccc(OC[C@@H]5CO[C@@](Cn6cccn6)(c6ccc(C#N)cc6C)O5)cc4)CC3)cc2)c1=O [Compound 172]
  EC50: 500 to 5000 nM

## CC[C@@H](C)n1ncn(-c2ccc(N3CCN(c4ccc(OC[C@@H]5CO[C@@](Cn6cccn6)(c6ccc(C#N)cc6C)O5)cc4)CC3)cc2)c1=O [Compound 173]
  EC50: 500 to 5000 nM

## CC[C@H](C)n1ncn(-c2ccc(N3CCN(c4ccc(OC[C@H]5CO[C@](Cn6cccn6)(c6ccc(C#N)cc6C)O5)cc4)CC3)cc2)c1=O [Compound 174]
  EC50: 500 to 5000 nM

## CC[C@@H](C)n1ncn(-c2ccc(N3CCN(c4ccc(OC[C@H]5CO[C@](Cn6cccn6)(c6ccc(C#N)cc6C)O5)cc4)CC3)cc2)c1=O [Compound 175]
  EC50: 5000 to 30000 nM

## CCC(CC)n1ncn(-c2ccc(N3CCN(c4ccc(OC[C@@H]5CO[C@@](Cn6cccn6)(c6ccc(C#N)cc6C)O5)cc4)CC3)cc2)c1=O [Compound 176]
  EC50: < 500 nM

## CCC(CC)n1ncn(-c2ccc(N3CCN(c4ccc(OC[C@H]5CO[C@](Cn6cccn6)(c6ccc(C#N)cc6C)O5)cc4)CC3)cc2)c1=O [Compound 177]
  EC50: 500 to 5000 nM

## CCC(C)n1ncn(-c2ccc(N3CCN(c4ccc(OC[C@@H]5CO[C@@](Cn6nccn6)(c6ccccc6)O5)cc4)CC3)cc2)c1=O (stereo partly shown) [Compound 178]
  EC50: < 500 nM

## CC[C@@H](C)n1ncn(-c2ccc(N3CCN(c4ccc(OC[C@@H]5CO[C@@](Cn6nccn6)(c6ccccc6)O5)cc4)CC3)cc2)c1=O [Compound 179, 4-(4-(4-(4-(((2S,4R)-2-((2H-1,2,3-triazol-2-yl)methyl)-2-phenyl-1,3-dioxolan-4-yl)methoxy)phenyl)piperazin-1-yl)phenyl)-(R)-1-sec-butyl-1H-1,2,4-triazol-5(4H)-one]
  EC50: < 500 nM

## CC[C@H](C)n1ncn(-c2ccc(N3CCN(c4ccc(OC[C@@H]5CO[C@@](Cn6nccn6)(c6ccccc6)O5)cc4)CC3)cc2)c1=O [Compound 180, 4-(4-(4-(4-(((2S,4R)-2-((2H-1,2,3-triazol-2-yl)methyl)-2-phenyl-1,3-dioxolan-4-yl)methoxy)phenyl)piperazin-1-yl)phenyl)-(S)-1-sec-butyl-1H-1,2,4-triazol-5(4H)-one]
  EC50: < 500 nM
